Source: US10160755B2 (Plexxikon Inc., priority 2015, dated 2018)

Legend:
FLT3-D835Y = biological target: T1, FLT3-D835Y (Homo sapiens, UniProt P36888, D835Y); assay: FLT3-D835Y biochemical kinase assay (AlphaScreen)
T1 construct: purchased Invitrogen PV3967
T1 sequence (P36888 27-993 D835Y): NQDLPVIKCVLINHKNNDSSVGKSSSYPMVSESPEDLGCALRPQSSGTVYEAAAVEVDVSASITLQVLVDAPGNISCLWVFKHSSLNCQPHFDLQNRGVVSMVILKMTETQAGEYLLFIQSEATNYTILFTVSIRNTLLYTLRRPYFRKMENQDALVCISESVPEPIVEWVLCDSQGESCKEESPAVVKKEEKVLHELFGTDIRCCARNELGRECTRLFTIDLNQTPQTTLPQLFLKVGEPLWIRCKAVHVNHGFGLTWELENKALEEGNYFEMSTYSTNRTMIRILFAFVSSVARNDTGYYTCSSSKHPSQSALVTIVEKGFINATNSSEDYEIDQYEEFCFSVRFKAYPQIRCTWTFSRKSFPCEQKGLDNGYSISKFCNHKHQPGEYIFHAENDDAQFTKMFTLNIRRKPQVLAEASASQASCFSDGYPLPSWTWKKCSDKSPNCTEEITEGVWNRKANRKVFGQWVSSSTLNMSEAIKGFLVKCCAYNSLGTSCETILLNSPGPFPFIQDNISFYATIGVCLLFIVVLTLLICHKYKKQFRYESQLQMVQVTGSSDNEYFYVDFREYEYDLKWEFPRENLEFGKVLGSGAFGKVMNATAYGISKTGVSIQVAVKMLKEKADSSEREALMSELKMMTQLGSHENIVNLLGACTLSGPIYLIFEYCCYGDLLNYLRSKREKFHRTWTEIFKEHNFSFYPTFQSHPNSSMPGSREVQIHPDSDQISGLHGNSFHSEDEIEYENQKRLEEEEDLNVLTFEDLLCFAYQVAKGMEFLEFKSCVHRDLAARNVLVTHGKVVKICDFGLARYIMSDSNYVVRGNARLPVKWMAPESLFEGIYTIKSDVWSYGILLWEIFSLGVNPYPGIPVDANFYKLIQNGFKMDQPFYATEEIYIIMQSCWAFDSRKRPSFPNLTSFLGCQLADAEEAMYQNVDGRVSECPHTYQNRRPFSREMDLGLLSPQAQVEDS
From the text: (§1) In order to determine the effect of compounds on FLT3 catalytic activity, kinase assays using recombinant enzymes and AlphaScreen® technology have been established. When the kinases are catalytically active, they phosphorylate a biotinylated peptide substrate on tyrosine residues. Using AlphaScreen® technology, the ability of the compounds to affect the catalytic activity of the kinases can be measured quantitatively. The peptide substrate is immobilized by the AlphaScreen® Streptavidin Donor beads and, upon phosphorylation by a tyrosine kinase, can bind to AlphaScreen® Anti-Phosphotyrosine (PY20) Acceptor beads. Upon excitation of these beads with laser light at 680 nm, singlet oxygen is produced. This singlet oxygen is rapidly quenched, unless the AlphaScreen® Anti-Phosphotyrosine (PY20) Acceptor beads are in close proximity, in which case a proximity signal can be measured at 580 nm. In the presence of catalytic activity, there is a very strong proximity signal. Selective kinase inhibitors affect a decrease in this proximity signal through a decrease in tyrosine phosphorylation of the peptide substrate.
(§2) Substrate • Poly (Glu4-Tyr) Peptide, biotin conjugate [Biotin-GG(EEEEY)10EE (SEQ ID NO: 4)] • UBI/Millipore #12-440 • Final concentration=30 nM
(§3) Adenosine Triphosphate (ATP) • Sigma #A-3377 • Final concentration for IC50 determination=10 μM (FLT3-D835Y) or 100 μM (FLT3 or FLT3-ITD) • Detection Reagent • AlphaScreen® Phosphotyrosine (PY20) Assay Kit • Perkin-Elmer #6760601M • Final concentration=10 μg/mL
(§4) Centrifuge 1 minute, shake to mix, and incubate as follows:
(§5) • Mix Streptavidin Donor beads at 6× final concentration in Stop/Detection buffer. • Add 5 μL Streptavidin Donor beads to the reaction plate. Centrifuge 1 minute, shake to mix, and incubate at room temperature for 20 minutes. • Mix Anti-Phosphotyrosine (PY20) Acceptor beads at 6× final concentration in Stop/Detection buffer. • Add 5 μL Anti-Phosphotyrosine (PY20) beads to the reaction plate. • Centrifuge 1 minute, shake to mix, and incubate at room temperature for 60 minutes. • Read plate on Wallac EnVision™ 2103 Multilabel Reader. In Vivo Model System Testing

FLT3-ITD = biological target: T2, FLT3-ITD (Homo sapiens, UniProt P36888); assay: FLT3-ITD biochemical kinase assay (AlphaScreen)
T2 construct: FLT3-ITD; Invitrogen #PV6190
T2 sequence (P36888 1-993): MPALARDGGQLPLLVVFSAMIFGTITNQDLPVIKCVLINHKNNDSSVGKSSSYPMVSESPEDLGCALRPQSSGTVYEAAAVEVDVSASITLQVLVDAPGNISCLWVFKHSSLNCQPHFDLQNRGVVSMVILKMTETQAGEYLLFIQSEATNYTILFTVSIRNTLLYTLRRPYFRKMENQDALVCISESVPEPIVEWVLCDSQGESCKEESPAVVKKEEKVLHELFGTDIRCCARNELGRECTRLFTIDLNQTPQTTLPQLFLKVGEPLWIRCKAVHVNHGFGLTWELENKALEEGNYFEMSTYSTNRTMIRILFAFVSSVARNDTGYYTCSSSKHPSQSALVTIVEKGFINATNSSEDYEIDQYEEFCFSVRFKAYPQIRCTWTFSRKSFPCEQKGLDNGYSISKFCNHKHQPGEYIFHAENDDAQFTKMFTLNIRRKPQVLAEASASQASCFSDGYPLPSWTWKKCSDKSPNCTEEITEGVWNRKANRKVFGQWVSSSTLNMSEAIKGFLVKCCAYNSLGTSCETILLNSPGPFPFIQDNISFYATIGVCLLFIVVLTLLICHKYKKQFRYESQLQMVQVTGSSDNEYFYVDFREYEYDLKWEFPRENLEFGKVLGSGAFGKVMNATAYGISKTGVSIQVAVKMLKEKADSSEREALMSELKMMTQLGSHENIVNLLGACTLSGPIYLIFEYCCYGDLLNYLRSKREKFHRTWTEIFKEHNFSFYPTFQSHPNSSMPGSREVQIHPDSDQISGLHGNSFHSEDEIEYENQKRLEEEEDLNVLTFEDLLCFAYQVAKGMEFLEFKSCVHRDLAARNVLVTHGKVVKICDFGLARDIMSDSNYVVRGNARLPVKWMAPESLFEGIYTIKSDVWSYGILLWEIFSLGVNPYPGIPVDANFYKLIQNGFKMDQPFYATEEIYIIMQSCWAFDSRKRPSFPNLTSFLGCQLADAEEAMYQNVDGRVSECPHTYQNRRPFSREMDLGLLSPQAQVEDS
From the text: as §1, §2, §3, §4, §5

Structure (SMILES) | IC50 (FLT3-D835Y) [µM] | IC50 (FLT3-ITD) [µM]
Cn1cnc2ccc(-c3c[nH]c4ncc(-c5cnn(-c6ccccn6)c5)cc34)cc21 [P-174, 1-methyl-6-[5-[1-(2-pyridyl)pyrazol-4-yl]-1H-pyrrolo[2,3-b]pyridin-3-yl]benzimidazole] | 0.0001 to 1 | 0.0001 to 1
COc1cc(-c2cnc3[nH]cc(-c4ccc5ncsc5c4)c3n2)ccc1Cl [P-161, 6-[2-(4-chloro-3-methoxy-phenyl)-5H-pyrrolo[2,3-b]pyrazin-7-yl]-1,3-benzothiazole] | 0.0001 to 1 | 1 to 10
COc1cc(-c2cnc3[nH]cc(-c4ccc5ncn(C6CCCNC6)c5c4)c3n2)ccn1 (stereo not shown) [P-136, 2-(2-methoxypyridin-4-yl)-7-(1-(piperidin-3-yl)-1H-benzo[d]imidazol-6-yl)-5H-pyrrolo[2,3-b]pyrazine] | 0.0001 to 1 | 0.0001 to 1
N#Cc1cccc(-c2cnc3[nH]cc(-c4ccc5ncn(C6CCCNC6)c5c4)c3c2)c1 (stereo not shown) [P-200, 3-[3-[3-(3-piperidyl)benzimidazol-5-yl]-1H-pyrrolo[2,3-b]pyridin-5-yl]benzonitrile] | 0.0001 to 1 | 0.0001 to 1
Cn1cnc2ccc(-c3c[nH]c4ncc(-c5ccc(C#N)s5)cc34)cc21 [P-179, 5-[3-(3-methylbenzimidazol-5-yl)-1H-pyrrolo[2,3-b]pyridin-5-yl]thiophene-2-carbonitrile] | 0.0001 to 1 | 0.0001 to 1
Cn1cnc2ccc(-c3c[nH]c4ncc(-c5cccc(C#N)c5)nc34)cc21 [P-146, 3-[7-(3-methylbenzimidazol-5-yl)-5H-pyrrolo[2,3-b]pyrazin-2-yl]benzonitrile] | 0.0001 to 1 | 0.0001 to 1
CC(C)(C)n1cnc2ccc(-c3c[nH]c4ncc(-c5cnc(NC6CC6)nc5)nc34)cc21 [P-362, 5-[7-(3-tert-butylbenzimidazol-5-yl)-5H-pyrrolo[2,3-b]pyrazin-2-yl]-N-cyclopropyl-pyrimidin-2-amine] | 0.0001 to 1 | 0.0001 to 1
COc1cc(-c2cnc3[nH]cc(-c4ccc5ncn(CC(F)(F)F)c5c4)c3c2)ccn1 [P-108, 5-(2-methoxy-4-pyridyl)-3-[3-(2,2,2-trifluoroethyl)benzimidazol-5-yl]-1H-pyrrolo[2,3-b]pyridine] | 0.0001 to 1 | 0.0001 to 1
Cn1cnc2ccc(-c3c[nH]c4ncc(-c5cccc(N6CCCS6(=O)=O)c5)nc34)cc21 [P-153, 2-[3-[7-(3-methylbenzimidazol-5-yl)-5H-pyrrolo[2,3-b]pyrazin-2-yl]phenyl]-1,2-thiazolidine 1,1-dioxide] | 0.0001 to 1 | 0.0001 to 1
O=S1(=O)CCCN1c1cccc(-c2cnc3[nH]cc(-c4ccc5ncsc5c4)c3n2)c1 [P-170, 2-[3-[7-(1,3-benzothiazol-6-yl)-5H-pyrrolo[2,3-b]pyrazin-2-yl]phenyl]-1,2-thiazolidine 1,1-dioxide] | 0.0001 to 1 | 0.0001 to 1
CC(C)(C)n1cnc2ccc(-c3c[nH]c4ncc(-c5ccc(S(=O)(=O)N6CCCC6)cc5)nc34)cc21 [P-239, 7-(3-tert-butylbenzimidazol-5-yl)-2-(4-pyrrolidin-1-ylsulfonylphenyl)-5H-pyrrolo[2,3-b]pyrazine] | 0.0001 to 1 | 0.0001 to 1
CC(C)(C)n1cnc2ccc(-c3c[nH]c4ncc(-c5cnc(C#N)c(Cl)c5)nc34)cc21 [P-361, 5-[7-(3-tert-butylbenzimidazol-5-yl)-5H-pyrrolo[2,3-b]pyrazin-2-yl]-3-chloro-pyridine-2-carbonitrile] | 0.0001 to 1 | 0.0001 to 1
Cn1cnc2ccc(-c3c[nH]c4ncc(-c5cnn(CC(F)(F)F)c5)nc34)cc21 [P-176, 7-(3-methylbenzimidazol-5-yl)-2-[1-(2,2,2-trifluoroethyl)pyrazol-4-yl]-5H-pyrrolo[2,3-b]pyrazine] | 0.0001 to 1 | 0.0001 to 1
COc1cnc2[nH]cc(-c3ccc4c(c3)ncn4C)c2c1 [P-102, 5-methoxy-3-(1-methylbenzimidazol-5-yl)-1H-pyrrolo[2,3-b]pyridine] | 1 to 10 | 10 to 200

Now from value to compound:

IC50 (FLT3-D835Y) [µM] | IC50 (FLT3-ITD) [µM] | Structure (SMILES)
0.0001 to 1 | 0.0001 to 1 | CC(C)(C)n1cnc2ccc(-c3c[nH]c4ncc(-c5cnc(C6CC6)nc5)cc34)cc21 [P-340, 1-tert-butyl-6-[5-(2-cyclopropylpyrimidin-5-yl)-1H-pyrrolo[2,3-b]pyridin-3-yl]benzimidazole]
0.0001 to 1 | 0.0001 to 1 | c1cc(-c2cnc3[nH]cc(-c4ccc5ncsc5c4)c3n2)cc(N2CCOCC2)c1 [P-163, 4-[3-[7-(1,3-benzothiazol-6-yl)-5H-pyrrolo[2,3-b]pyrazin-2-yl]phenyl]morpholine]
0.0001 to 1 | 0.0001 to 1 | CC(C)(C)n1cnc2ccc(-c3c[nH]c4ncc(-c5ccc(C#N)c(N6CCCC6)c5)nc34)cc21 [P-335, 4-[7-(3-tert-butylbenzimidazol-5-yl)-5H-pyrrolo[2,3-b]pyrazin-2-yl]-2-pyrrolidin-1-yl-benzonitrile]
0.0001 to 1 | 0.0001 to 1 | CC(C)S(=O)(=O)Nc1cccc(-c2cnc3[nH]cc(-c4ccc5ncn(C(C)(C)C)c5c4)c3c2)c1 [P-214, N-[3-[3-(3-tert-butylbenzimidazol-5-yl)-1H-pyrrolo[2,3-b]pyridin-5-yl]phenyl]propane-2-sulfonamide]
0.0001 to 1 | 0.0001 to 1 | CC(C)(C)n1cnc2ccc(-c3c[nH]c4ncc(-c5cccc(OC(F)(F)F)c5)cc34)cc21 [P-202, 1-tert-butyl-6-[5-[3-(trifluoromethoxy)phenyl]-1H-pyrrolo[2,3-b]pyridin-3-yl]benzimidazole]
0.0001 to 1 | 0.0001 to 1 | COC(=O)c1cc(-c2cnc3[nH]cc(-c4ccc5ncsc5c4)c3n2)ccc1C [P-165, methyl 5-[7-(1,3-benzothiazol-6-yl)-5H-pyrrolo[2,3-b]pyrazin-2-yl]-2-methyl-benzoate]
